Consider one substance from patent US20240408194A1, “DNA ORIGAMI SUBUNIT VACCINE FOR PREVENTION OF SARS-CoV-2 VARIANT INFECTION” (priority 2021, published 2024).

Entries after “also recorded” stand apart in the source; their conditions may differ.

This experiment has as its system spike and variants. The class given is binding, SARS-COV-2.

For LCB1, the “binding affinity for spike and variants” value is reported as “up to picomolar; also recorded: high affinity”.
